Among the data in DBAASP are MIC values, retold here.

As usually defined, the MIC is the lowest concentration found to suppress growth. A higher MIC goes with a need for much substance.

Converted amounts (≈) assume the structure as drawn. Where only a bound is given, the exact number is not on record here.

Test systems include Escherichia coli 1342; Acinetobacter baumannii; Proteus mirabilis 090223; Aeromonas sobria 090223; Candida glabrata 0902; Klebsiella pneumoniae.
Common to all, as to experiment: ≥ marks a high value that may be exact or a test limit, other limits are often not marked, values filed in µg/mL are converted to µM
Assay [1] has as its system Escherichia coli ATCC 28922.
The test system of assay [2] is Citrobacter freundii ATCC 8090.
Assay [3] relates to Pseudomonas aeruginosa ATCC 9027.
Assay [4] deals with Stenotrophomonas maltophilia 090223.
The subject of assay [5] is Escherichia coli ATCC 25922.
The subject of assay [6] is Staphylococcus aureus ATCC 2592.
For assay [7], the system named is Staphylococcus aureus 1349.
Assay [8] deals with Nocardia asteroides 090312.
The subject of assay [9] is Candida albicans ATCC 2002.
In assay [10] the test system is Enterococcus faecium 1299.
Assay [11] has as its system Staphylococcus aureus 090223.

Consider `CC(C)C[C@H](NC(=O)[C@H](CC(C)C)NC(=O)CNC(=O)CNC(=O)CNC(=O)CNC(=O)CNC(=O)CNC(=O)CNC(=O)CNC(=O)CNC(=O)[C@H](CC(C)C)NC(=O)[C@H](CC(C)C)NC(=O)[C@@H]1CCCN1C(=O)CNC(=O)[C@H](CC(C)C)NC(=O)[C@H](CC(C)C)NC(=O)CNC(=O)CNC(=O)[C@H](CC(C)C)NC(=O)[C@H](CC(C)C)NC(=O)CN)C(=O)O` [GLLGGLLGPLLGGGGGGGGGLL], for which the MIC in assay [1] was at least 50 µM; in assay [2], at least 75 µM; in assay [3] it was 8 µM (≈ 14.1 µg/mL).

In the case of `CC[C@H](C)[C@@H]1NC(=O)[C@H](CC(C)C)NC(=O)[C@@H](NC(=O)[C@H](Cc2ccccc2)NC(=O)[C@H](CC(C)C)NC(=O)[C@H](CO)NC(=O)[C@@H]2CCCN2C(=O)[C@H](CC(C)C)NC(=O)[C@H](CCCN=C(N)N)NC(=O)[C@H](CCCCN)NC(=O)[C@@H](NC(=O)[C@@H](NC(=O)[C@H](C)NC(=O)CNC(=O)[C@H](CC(C)C)NC(=O)[C@H](C)NC(=O)[C@@H](N)Cc2ccccc2)C(C)C)[C@@H](C)O)CSSC[C@@H](C(=O)O)NC(=O)[C@H](CCCCN)NC(=O)[C@H](CCCN=C(N)N)NC(=O)[C@H]([C@@H](C)O)NC1=O` [FALGAVTKRLPSLFCLITRKC], the MIC was 2.01 µM (≈ 4.7 µg/mL) in assay [4]; 8.04 µM (≈ 18.8 µg/mL) in assay [5]; 2.01 µM (≈ 4.7 µg/mL) in the assay with Escherichia coli 1342; 8.04 µM (≈ 18.8 µg/mL) in [6]; 5.69 µM (≈ 13.3 µg/mL) with Acinetobacter baumannii; 4.02 µM (≈ 9.39 µg/mL) in the assay with Proteus mirabilis 090223. For the same compound, the MIC was 4.02 µM (≈ 9.39 µg/mL) against Aeromonas sobria 090223; 16 µM (≈ 37.5 µg/mL) against Candida glabrata 0902; 8.04 µM (≈ 18.8 µg/mL) in assay [7]; 8.04 µM (≈ 18.8 µg/mL) in assay [8]; over 42.8 µM in the assay with Klebsiella pneumoniae; 0.984 µM (≈ 2.3 µg/mL) in assay [9]. Moreover, the results for the MIC in assay [10] and in assay [11] were 2.01 µM (≈ 4.7 µg/mL) and 0.984 µM (≈ 2.3 µg/mL), respectively.
